Reference: ChEMBL document CHEMBL1147074, “Reevaluation of telomerase inhibition by quadruplex ligands and their mechanisms of action” (Proc Natl Acad Sci U S A, 2007)
Calls of active or inactive are those of the source. The rule behind the calls is not given here.

What was measured:
[1] = biological target: T1, Telomerase reverse transcriptase (Homo sapiens, UniProt O14746); assay: Inhibition of human telomerase expressed in HEK293T cells in presence of primer (T2AG3)3 by primer extension assay; format: cell-based; settings: hek-293t
T1 sequence (O14746 whole entry): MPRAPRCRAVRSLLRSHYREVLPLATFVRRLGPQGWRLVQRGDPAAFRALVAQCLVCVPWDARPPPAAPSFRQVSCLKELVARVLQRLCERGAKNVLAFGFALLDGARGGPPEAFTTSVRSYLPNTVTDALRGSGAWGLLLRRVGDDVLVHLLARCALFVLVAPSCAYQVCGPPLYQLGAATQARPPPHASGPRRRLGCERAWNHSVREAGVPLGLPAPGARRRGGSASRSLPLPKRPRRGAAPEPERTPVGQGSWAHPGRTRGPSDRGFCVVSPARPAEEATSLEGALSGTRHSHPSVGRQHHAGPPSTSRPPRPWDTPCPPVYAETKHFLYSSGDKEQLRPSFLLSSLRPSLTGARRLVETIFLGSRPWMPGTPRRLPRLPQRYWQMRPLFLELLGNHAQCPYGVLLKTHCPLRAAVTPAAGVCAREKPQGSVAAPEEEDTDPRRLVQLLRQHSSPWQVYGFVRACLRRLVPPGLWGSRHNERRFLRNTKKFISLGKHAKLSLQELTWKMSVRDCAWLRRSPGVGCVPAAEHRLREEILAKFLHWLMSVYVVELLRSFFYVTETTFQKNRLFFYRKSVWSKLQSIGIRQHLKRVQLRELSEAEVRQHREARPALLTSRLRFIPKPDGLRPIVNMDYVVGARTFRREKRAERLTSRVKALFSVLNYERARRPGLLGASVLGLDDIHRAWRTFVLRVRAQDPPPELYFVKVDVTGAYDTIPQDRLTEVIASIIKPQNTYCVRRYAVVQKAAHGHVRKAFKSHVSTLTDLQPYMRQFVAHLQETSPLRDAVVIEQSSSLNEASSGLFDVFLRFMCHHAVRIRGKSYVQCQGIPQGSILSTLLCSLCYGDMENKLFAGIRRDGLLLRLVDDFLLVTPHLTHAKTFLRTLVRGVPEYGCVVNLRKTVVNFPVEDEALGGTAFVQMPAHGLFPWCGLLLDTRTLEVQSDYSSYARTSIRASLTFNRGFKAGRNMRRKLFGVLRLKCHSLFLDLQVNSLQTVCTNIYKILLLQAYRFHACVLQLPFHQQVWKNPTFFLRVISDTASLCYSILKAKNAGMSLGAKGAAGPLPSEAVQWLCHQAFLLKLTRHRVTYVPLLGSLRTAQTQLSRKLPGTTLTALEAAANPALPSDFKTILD

[2] = biological target: T1, Telomerase reverse transcriptase; assay: Inhibition of human telomerase expressed in HEK293T cells treated before telomerase elongation by telomeric repeat amplification protocol assay; format: cell-based; settings: hek-293t
[3] = biological target: T1, Telomerase reverse transcriptase; assay: Decrease in telomerase processivity assessed as decrease in telomerase elongation in presence of Telo3R primer by primer extension assay
[4] = biological target: T1, Telomerase reverse transcriptase; assay: Inhibition of human telomerase expressed in HEK293T cells in presence of primer (T2AG3)4 by primer extension assay; format: cell-based; settings: hek-293t
[5] = biological target: T1, Telomerase reverse transcriptase; assay: Inhibition of human telomerase expressed in HEK293T cells in presence of primer TS by primer extension assay; format: cell-based; settings: hek-293t

| SMILES | IC50 [1] | IC50 [2] | Activity [3] | IC50 [4] | IC50 [5] |
| --- | --- | --- | --- | --- | --- |
| C[n+]1ccc(-c2c3nc(c(-c4cc[n+](C)cc4)c4ccc([nH]4)c(-c4cc[n+](C)cc4)c4nc(c(-c5cc[n+](C)cc5)c5ccc2[nH]5)C=C4)C=C3)cc1 [TMPYP4] | 710 nM | 550 nM |  |  |  |
| C[n+]1cc(NC(=O)c2ccc3ccc4ccc(C(=O)Nc5cc6ccccc6[n+](C)c5)nc4c3n2)cc2ccccc21 |  |  | Active |  |  |
| CN(C)c1ccc(Nc2c3ccc(NC(=O)CCN4CCCC4)cc3nc3cc(NC(=O)CCN4CCCC4)ccc23)cc1 | 830 nM | 45 nM | inactive |  |  |
| C[n+]1cc(NC(=O)c2cccc(C(=O)Nc3cc4ccccc4[n+](C)c3)n2)cc2ccccc21 |  |  | Active |  |  |
| C[n+]1ccc(-c2c3nc(c(-c4cc[n+](C)cc4)c4ccc([nH]4)c(-c4cc[n+](C)cc4)c4ccc([nH]4)c(-c4cc[n+](C)cc4)c4nc2C=C4)C=C3)cc1 |  |  | inactive |  |  |
| Cc1oc2nc1-c1nc(co1)-c1nc(co1)-c1nc(co1)-c1nc(co1)-c1nc(co1)C1=NC(CS1)c1nc-2c(C)o1 (stereo not drawn) [TELOMESTATIN] | 900 nM | 0.64 nM | inactive | 58 nM | 1150 nM |
